“And” between values parts separate entries of the source, which are not always exact repeats. Equal entries are not always repeated. Inconclusive results and toxic doses are left out.

The experiment deals with CD2F1 mice, P388/DHAQ leukemia ip, median survival T/C. The experiment can be described thus: NCI In Vivo Anticancer Drug Screen. Data for tumor model P388 Leukemia resistant to Dihydroxy Anthracenedione; NSC 299195 (intraperitoneal) in CD2F1 (CDF1) mice. Conditions: endpoint: median survival time, higher = longer survival. On the procedure: The antitumor activity of compounds was measured in mice bearing transplantable tumors. Survival or tumor size were measured and the results are expressed as the measurement made in the treated group (T) divided by the measurement made in the vehicle treated control group (C). The tumor model used in this assay is P388 Leukemia resistant to Dihydroxy Anthracenedione; NSC 299195 (intraperitoneal) in CD2F1 (CDF1) mice

The mark [1] stands for this setting: dose: 64.8 mg/kg/injection, schedule: Q04DX003 (ip), vehicle: saline.
[2] abbreviates: dose: 108.0 mg/kg/injection, schedule: Q04DX003 (ip), vehicle: saline.
Setting [3] is: dose: 1.62 mg/kg/injection, schedule: Q04DX003 (ip), vehicle: saline.
The mark [4] stands for this setting: dose: 2.7 mg/kg/injection, schedule: Q04DX003 (ip), vehicle: saline.
The mark [5] stands for this setting: dose: 4.5 mg/kg/injection, schedule: Q04DX003 (ip), vehicle: saline.
Where [6] appears, read: dose: 7.5 mg/kg/injection, schedule: Q04DX003 (ip), vehicle: saline.

For the compound `CCN(CC)CCNc1ccc(C)c2sc3ccccc3c(=O)c12`, the T/C runs as follows: (dose: 16.2 mg/kg/injection, schedule: Q01DX005 (ip), vehicle: saline) 106 % of control; (dose: 19.4 mg/kg/injection, schedule: Q01DX005 (ip), vehicle: saline) 100 % of control; (dose: 19.44 mg/kg/injection, schedule: Q01DX005 (ip), vehicle: saline) 106 % of control; (dose: 27.0 mg/kg/injection, schedule: Q01DX005 (ip), vehicle: saline) 107 % of control; (dose: 32.4 mg/kg/injection, schedule: Q01DX005 (ip), vehicle: saline) 102 % of control and 113 % of control; (dose: 38.9 mg/kg/injection, schedule: Q04DX003 (ip), vehicle: saline) 106 % of control. In addition, the T/C (dose: 45.0 mg/kg/injection, schedule: Q01DX005 (ip), vehicle: saline) was 121 % of control; the T/C (dose: 54.0 mg/kg/injection, schedule: Q01DX005 (ip), vehicle: saline) is 106 % of control and 124 % of control; the T/C under setting [1] was 104 % of control; the T/C (dose: 90.0 mg/kg/injection, schedule: Q01DX005 (ip), vehicle: saline) was 112 % of control; the T/C under setting [2] was 120 % of control; the T/C (dose: 125.0 mg/kg/injection, schedule: Q01DX005 (ip), vehicle: saline) is 105 % of control.

`CC[C@H]1CN2CCc3cc(OC)c(OC)cc3[C@@H]2C[C@@H]1C[C@H]1NCCc2cc(OC)c(OC)cc21`: the T/C is, setting by setting: (dose: 4.32 mg/kg/injection, schedule: Q04DX003 (ip), vehicle: saline) 111 % of control; (dose: 5.18 mg/kg/injection, schedule: Q04DX003 (ip), vehicle: saline) 111 % of control; (dose: 7.2 mg/kg/injection, schedule: Q04DX003 (ip), vehicle: saline) 121 % of control; (dose: 8.64 mg/kg/injection, schedule: Q04DX003 (ip), vehicle: saline) 121 % of control; (dose: 12.0 mg/kg/injection, schedule: Q04DX003 (ip), vehicle: saline) 121 % of control; (dose: 14.4 mg/kg/injection, schedule: Q04DX003 (ip), vehicle: saline) 156 % of control. The T/C (dose: 24.0 mg/kg/injection, schedule: Q04DX003 (ip), vehicle: saline) is 175 % of control and 228 % of control.

Turning to `O=C1c2c(O)ccc(O)c2C(=O)c2c(NCCNCCO)ccc(NCCNCCO)c21`, the T/C is, setting by setting: (dose: 0.65 mg/kg/injection, schedule: Q04DX003 (ip), vehicle: saline) 112 % of control; (dose: 0.78 mg/kg/injection, schedule: Q04DX003 (ip), vehicle: saline) 119 % of control and 111 % of control; (dose: 1.08 mg/kg/injection, schedule: Q04DX003 (ip), vehicle: saline) 107 % of control; (dose: 1.3 mg/kg/injection, schedule: Q04DX002 (ip), vehicle: water) 112 % of control and 114 % of control and 100 % of control; under setting [3], 104 % of control; (dose: 2.16 mg/kg/injection, schedule: Q04DX002 (ip), vehicle: water) 103 % of control and 120 % of control. The T/C reads like this: under setting [4], 119 % of control; (dose: 3.6 mg/kg/injection, schedule: Q04DX002 (ip), vehicle: water) 104 % of control and 105 % of control and 97 % of control; (dose: 4.0 mg/kg/injection, schedule: Q04DX002 (ip), vehicle: water) 100 % of control; under setting [5], 124 % of control; (dose: 6.0 mg/kg/injection, schedule: Q04DX002 (ip), vehicle: water) 93 % of control and 96 % of control and 97 % of control; (dose: 6.67 mg/kg/injection, schedule: Q04DX002 (ip), vehicle: water) 106 % of control. Moreover, the T/C under setting [6] is 120 % of control; the T/C (dose: 10.0 mg/kg/injection, schedule: Q04DX002 (ip), vehicle: water) was 87 % of control and 88 % of control; the T/C (dose: 10.0 mg/kg/injection, schedule: Q04DX003 (ip), vehicle: saline) was 109 % of control.

Take `O=NN(CCCl)C(=O)NC1CCCCC1`: the T/C is 192 % of control (dose: 7.2 mg/kg/injection, schedule: Q04DX003 (ip), vehicle: saline + alcohol); 337 % of control (dose: 12.0 mg/kg/injection, schedule: Q04DX003 (ip), vehicle: saline + alcohol); 542 % of control (dose: 20.0 mg/kg/injection, schedule: Q04DX003 (ip), vehicle: saline + alcohol); 202 % of control (dose: 33.3 mg/kg/injection, schedule: Q04DX003 (ip), vehicle: saline + alcohol).

As for `CC(CN1CC(=O)NC(=O)C1)N1CC(=O)NC(=O)C1` (stereo not drawn), the T/C is 101 % of control under setting [1]; 104 % of control under setting [2]; 107 % of control (dose: 180.0 mg/kg/injection, schedule: Q04DX003 (ip), vehicle: saline); 123 % of control (dose: 500.0 mg/kg/injection, schedule: Q04DX003 (ip), vehicle: saline).

Turning to `S=P(N1CC1)(N1CC1)N1CC1`, the T/C is 103 % of control (dose: 3.24 mg/kg/injection, schedule: Q04DX002 (ip), vehicle: saline); 122 % of control (dose: 5.4 mg/kg/injection, schedule: Q04DX002 (ip), vehicle: saline); 183 % of control (dose: 15.0 mg/kg/injection, schedule: Q04DX002 (ip), vehicle: saline).

For the compound `COc1c(O)c2c(c3cc(C(=O)N4CCc5c4c(O)c(OC)c4[nH]c(C(=O)N6CC7CC78C6=CC(=O)c6[nH]cc(C)c68)cc54)[nH]c13)CCN2C(N)=O` (stereo not drawn), the T/C was 122 % of control (dose: 0.05 mg/kg/injection, schedule: Q04DX003 (ip), vehicle: DMSO); 119 % of control (dose: 0.09 mg/kg/injection, schedule: Q04DX003 (ip), vehicle: DMSO); 100 % of control (dose: 13.0 micrograms/kg/injection, schedule: Q01DX009 (ip), vehicle: DMSO); 96 % of control (dose: 21.6 micrograms/kg/injection, schedule: Q01DX009 (ip), vehicle: DMSO); 94 % of control (dose: 36.0 micrograms/kg/injection, schedule: Q01DX009 (ip), vehicle: DMSO); 114 % of control (dose: 38.9 micrograms/kg/injection, schedule: Q04DX003 (ip), vehicle: DMSO). The T/C was 93 % of control (dose: 60.0 micrograms/kg/injection, schedule: Q01DX009 (ip), vehicle: DMSO); 114 % of control (dose: 64.8 micrograms/kg/injection, schedule: Q04DX003 (ip), vehicle: DMSO); 94 % of control (dose: 100.0 micrograms/kg/injection, schedule: Q01DX009 (ip), vehicle: DMSO); 121 % of control (dose: 108.0 micrograms/kg/injection, schedule: Q04DX003 (ip), vehicle: DMSO); 105 % of control (dose: 180.0 micrograms/kg/injection, schedule: Q04DX003 (ip), vehicle: DMSO); 102 % of control (dose: 300.0 micrograms/kg/injection, schedule: Q04DX003 (ip), vehicle: DMSO). Also, the T/C (dose: 300.0 micrograms/kg/injection, schedule: Q04DX003 (ip), vehicle: saline) is 100 % of control.

In the case of `COc1cccc2c1C(=O)c1c(O)c3c(c(O)c1C2=O)C[C@@](O)(C(=O)CO)C[C@@H]3OC1CC(N)C(O)C(C)O1` (stereo partly drawn), the T/C runs as follows: (dose: 0.97 mg/kg/injection, schedule: Q04DX002 (ip), vehicle: saline) 118 % of control; (dose: 1.3 mg/kg/injection, schedule: Q04DX002 (ip), vehicle: saline) 115 % of control and 120 % of control; (dose: 2.16 mg/kg/injection, schedule: Q04DX002 (ip), vehicle: saline) 120 % of control; (dose: 2.7 mg/kg/injection, schedule: Q04DX002 (ip), vehicle: saline) 119 % of control; (dose: 3.6 mg/kg/injection, schedule: Q04DX002 (ip), vehicle: saline) 123 % of control; (dose: 6.0 mg/kg/injection, schedule: Q04DX002 (ip), vehicle: saline) 121 % of control. In addition, the T/C (dose: 10.0 mg/kg/injection, schedule: Q04DX002 (ip), vehicle: saline) was 102 % of control and 120 % of control.

Regarding `CO[C@@]12[C@H](COC(N)=O)C3=C(C(=O)C(C)=C(N)C3=O)N1C[C@@H]1N[C@@H]12`, the T/C was 95 % of control (dose: 1.08 mg/kg/injection, schedule: Q04DX002 (ip), vehicle: saline); 166 % of control under setting [3]; 108 % of control (dose: 1.8 mg/kg/injection, schedule: Q04DX002 (ip), vehicle: saline); 172 % of control under setting [4]; 103 % of control (dose: 3.0 mg/kg/injection, schedule: Q04DX002 (ip), vehicle: saline); 168 % of control under setting [5]. In addition, the T/C by setting is: (dose: 5.0 mg/kg/injection, schedule: Q04DX002 (ip), vehicle: saline) 117 % of control; under setting [6], 108 % of control.

(Values after PubChem BioAssay AID326 (DTP/NCI, 2004).)
